Experimental findings from patent publication US8987249B2, “Substituted 2-Aza-bicyclo[2.2.1]heptane-3-carboxylic acid (benzyl-cyano-methyl)-amides inhibitors of Cathepsin C” (Boehringer Ingelheim International GmbH, priority 2013, dated 2015) are described below.

The structures appear in SMILES notation.

Test [1] concerns the target recombinant human DPPI (Cathepsin C) (Homo sapiens (Human), UniProt P53634). The test is described as follows: Inhibition of human DPPI (Cathepsin C). The format is biochemical. As to conditions: substrate Gly-Arg-AMC. How it is done:
Inhibition of Human DPPI (Cathepsin C)
Bovine serum albumin (BSA; Prod. No. A3059) and Dithiothreitol (DTT; Prod. No D0632) were from Sigma. […] The DPP1 inhibitor Gly-Phe-DMK was purchased from MP Biomedicals (Prod.-No. 03DK00625). The recombinant human DPPI was purchased from Prozymex. All other materials were of highest grade commercially available.
The following buffers were used: MES buffer: 25 mM MES, 50 mM NaCl, 5 mM DTT, adjusted to pH 6.0, containing 0.1% BSA; TAGZyme Buffer: 20 mM NaH2PO4, 150 mM NaCl adjusted to pH 6.0 with HCl
Then, 5 μL of substrate in MES buffer (final concentration 50 μM) were added. The microtiter plates were then incubated at room temperature for 30 min. Then, the reaction was stopped by adding 10 μL of Gly-Phe-DMK in MES-buffer (final concentration 1 μM).
The analysis of the data was performed by calculating the percentage of fluorescence in the presence of test compound in comparison to the fluorescence of the vehicle control after subtracting the background fluorescence using the following formula: (RFU(sample)−RFU(background))*100/(RFU(control)−RFU(background))
Data from these calculations were used to generate IC50 values for inhibition of DPPI, respectively.

Test [2] addresses recombinant human Cathepsin K (Homo sapiens (Human), UniProt P43235). The test is described as follows: Inhibition of human Cathepsin K. The format is biochemical. As to conditions: substrate Z-Gly-Pro-Arg-AMC. The source says: Inhibition of Human Cathepsin K
Materials: Microtiterplates (Optiplate-384 F were purchased from PerkinElmer (Prod. No. 6007270). The substrate Z-Gly-Pro-Arg-AMC was from Biomol (Prod.-No. P-142). L-Cysteine (Prod. No. 168149) was from Sigma. Sodium acetate was from Merck (Prod.-No. 6268.0250), EDTA was from Fluka (Prod.-No. 03680). The inhibitor E-64 was purchased from Sigma (Prod.-No. E3132). The recombinant human Cathepsin K proenzyme was purchased from Biomol (Prod. No. SE-367). All other materials were of highest grade commercially available.
The following buffers were used: Activation buffer: 32.5 mM sodium acetate, adjusted to pH 3.5 with HCl; Assay buffer: 150 mM sodium acetate, 4 mM EDTA, 20 mM L-Cysteine, adjusted to pH 5.5 with HCl,
To activate the proenzyme, 5 μl procathepsin K were mixed with 1 ul activation buffer, and incubated at room temperature for 30 min.
5 μL test compound (final concentration 0.1 nM to 100 μM) in aqua bidest (containing 4% DMSO, final DMSO concentration 1%) were mixed with 10 uL of Cathepsin K in assay buffer (final concentration 2 ng/μL) and incubated for 10 min. […] The plates were then incubated at room temperature for 60 min. Then, the reaction was stopped by adding 10 μL of E64 in assay buffer (final concentration 1 μM). The fluorescence in the wells was determined using a Molecular Devices SpectraMax M5 Fluorescence Reader (Ex 360 nm, Em 460 nm).
Each assay microtiter plate contains wells with vehicle controls (1% DMSO in bidest) as reference for non-inhibited enzyme activity (100% Ctl; high values) and wells with inhibitor (E64 in bidest+1% DMSO, final concentration […]) as controls for background fluorescence (0% Ctl; low values). The analysis of the data was performed by calculating the percentage of fluorescence in the presence of test compound in comparison to the fluorescence of the vehicle control after subtracting the background fluorescence: (RFU(sample)−RFU(background))*100/(RFU(control)−RFU(background))
Data from these calculations were used to generate IC50 values for inhibition of Cathepsin K, respectively.

recombinant human Cathepsin K, sequence (P43235 115-329): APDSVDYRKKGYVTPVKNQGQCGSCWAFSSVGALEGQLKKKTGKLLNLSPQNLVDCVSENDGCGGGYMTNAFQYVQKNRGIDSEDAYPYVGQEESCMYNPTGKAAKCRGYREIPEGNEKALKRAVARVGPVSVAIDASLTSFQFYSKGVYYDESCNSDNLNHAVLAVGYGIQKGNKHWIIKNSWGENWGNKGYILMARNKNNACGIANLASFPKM
recombinant human DPPI (Cathepsin C), sequence (P53634 231-394): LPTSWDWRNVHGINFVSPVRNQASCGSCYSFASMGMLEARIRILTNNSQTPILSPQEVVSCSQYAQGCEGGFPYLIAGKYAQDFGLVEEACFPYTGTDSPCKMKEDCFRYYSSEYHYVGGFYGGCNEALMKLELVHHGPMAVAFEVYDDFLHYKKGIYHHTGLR
recombinant human DPPI (Cathepsin C), sequence (P53634 395-463): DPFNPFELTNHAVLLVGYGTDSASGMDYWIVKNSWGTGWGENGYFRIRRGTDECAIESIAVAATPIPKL
recombinant human DPPI (Cathepsin C), sequence (P53634 25-134): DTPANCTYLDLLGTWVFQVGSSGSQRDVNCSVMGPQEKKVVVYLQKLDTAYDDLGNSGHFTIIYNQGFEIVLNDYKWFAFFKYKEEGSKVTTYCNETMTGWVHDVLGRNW

On to `N#CC(Cc1ccc(-c2ccc(S(N)(=O)=O)cc2)cc1F)NC(=O)[C@H]1N[C@@H]2CC[C@H]1C2` (stereo partly shown) [Example 56], for which the IC50 stood at 8.3 nM in test [1] and 4000 nM in test [2].
On to `COC(=O)c1cc(-c2ccc(C[C@@H](C#N)NC(=O)[C@H]3N[C@@H]4CC[C@H]3C4)c(F)c2)cs1` [Example 17], for which the results for the IC50 in test [1] and in test [2] were 2.6 nM and 6100 nM, respectively.
For `N#C[C@H](Cc1ccc(-c2csc(C(=O)N3CCN(C4CC4)CC3)c2)cc1F)NC(=O)[C@H]1N[C@@H]2CC[C@H]1C2` [Example 229] the same measures were 1.7 nM and 1600 nM.
On to `N#C[C@H](Cc1ccc(-c2ccc(C(=O)N3CCn4nccc4C3)s2)cc1F)NC(=O)[C@H]1N[C@@H]2CC[C@H]1C2` [Example 237], for which the IC50 turned out to be 4.6 nM in test [1] and 1900 nM in test [2].
The corresponding values for `CC(=O)n1cc(-c2ccc(C[C@@H](C#N)NC(=O)[C@H]3N[C@@H]4CC[C@H]3C4)c(F)c2)cn1` [Example 20] are 3.1 nM and 2900 nM.
Regarding `N#C[C@H](Cc1ccc(-c2ccsc2)cc1F)NC(=O)[C@H]1N[C@@H]2CC[C@H]1C2` [Example 18], the IC50 in test [1] was determined as 2.7 nM; in test [2] it was 3000 nM.
For `Cc1nc(C)c(-c2ccc(C[C@@H](C#N)NC(=O)[C@H]3N[C@@H]4CC[C@H]3C4)c(F)c2)s1` [Example 80] the same measures were 12.4 nM and 4100 nM.
In the case of `N#CC(Cc1ccc2c(c1)c(=O)[nH]c1cc(Cl)ccc12)NC(=O)[C@H]1N[C@@H]2CC[C@H]1C2` (stereo partly shown) [Example 297], the IC50 in test [1] stood at 3.2 nM; in test [2], 12400 nM.
`CC(O)Cc1cn(-c2ccc(C[C@@H](C#N)NC(=O)[C@H]3N[C@@H]4CC[C@H]3C4)c(F)c2)nn1` (stereo partly shown) [Example 101]: the results for the IC50 in test [1] and in test [2] were 23.9 nM and 6500 nM, respectively.
`N#C[C@H](Cc1ccc(-c2cccc(C(N)=O)c2)cc1F)NC(=O)[C@H]1N[C@H]2C[C@@H]1[C@@H]1C[C@@H]12` [Example 146]: the IC50 in test [1] turned out to be 30.5 nM; in test [2], 9600 nM.
Regarding `CC(C)n1cc(-c2ccc(CC(C#N)NC(=O)[C@H]3N[C@@H]4CC[C@H]3C4)c(F)c2)cn1` (stereo partly shown) [Example 68], in test [2], the IC50 worked out at 7300 nM.
For the compound `Cn1nc2ccccc2c1-c1ccc(C[C@@H](C#N)NC(=O)[C@H]2N[C@@H]3CC[C@H]2C3)c(F)c1` [Example 60], the IC50 in test [1] worked out at 8.7 nM; in test [2] it was 12300 nM.
With `CN1Cc2cc(-c3ccc(C[C@@H](C#N)NC(=O)[C@H]4N[C@H]5C[C@@H]4[C@@H]4C[C@@H]45)c(F)c3)ccc2C1=O` [Example 149], the IC50 in test [1] stood at 38.7 nM; in test [2], 7600 nM.
For the compound `N#C[C@@H](Cc1ccc(-c2ccc3ncsc3c2)cc1F)NC(=O)[C@H]1N[C@@H]2CC[C@H]1C2` [Example 45], the IC50 in test [1] came out at 6.3 nM; in test [2] it was 4400 nM.
On to `CC(=O)n1nc(-c2ccc(CC(C#N)NC(=O)[C@H]3N[C@@H]4CC[C@H]3C4)c(F)c2)cc1C` (stereo partly drawn) [Example 7, (1S,2S,4R)—N-[2-[4-(1-acetyl-5-methyl-pyrazol-3-yl)-2-fluoro-phenyl]-1-cyano-ethyl]-3-azabicyclo[2.2.1]heptane-2-carboxamide], for which the results for the IC50 in test [1] and in test [2] were 1.9 nM and 8000 nM, respectively.
Turning to `N#C[C@H](Cc1ccc(-c2ccco2)cc1F)NC(=O)[C@H]1N[C@@H]2CC[C@H]1C2` [Example 73], the figures for the IC50 in test [1] and in test [2] were 11.2 nM and 3100 nM, respectively.
Turning to `CCCn1cc(-c2ccc(C[C@@H](C#N)NC(=O)[C@H]3N[C@@H]4CC[C@H]3C4)c(F)c2)cn1` [Example 30], the IC50 in test [1] amounted to 4.2 nM; in test [2], 3100 nM.
For `N#Cc1sccc1-c1ccc(C[C@@H](C#N)NC(=O)[C@H]2N[C@@H]3CC[C@H]2C3)c(F)c1` [Example 85] the same measures were 14 nM and 3000 nM.
On to `COCCN1CCN(C(=O)c2cc(-c3ccc(C[C@@H](C#N)NC(=O)[C@H]4N[C@@H]5CC[C@H]4C5)c(F)c3)cs2)CC1` [Example 228], for which the IC50 in test [1] came to 1.6 nM; in test [2], 2000 nM.
In the case of `CN1C(=O)Cc2ccc(-c3ccc(C[C@@H](C#N)NC(=O)[C@H]4N[C@@H]5CC[C@H]4C5)c(Cl)c3)cc21` [Example 81], the IC50 in test [1] was determined as 13.1 nM; in test [2] it was 4500 nM.
Regarding `Cc1ncc(-c2ccc(C[C@@H](C#N)NC(=O)[C@H]3N[C@@H]4CC[C@H]3C4)c(F)c2)s1` [Example 25], the IC50 in test [1] was 3.9 nM; in test [2] it was 6300 nM.
With `CCn1cc(-c2ccc(C[C@@H](C#N)NC(=O)[C@H]3N[C@@H]4CC[C@H]3C4)c(F)c2)cn1` [Example 26], the IC50 amounted to 4 nM in test [1] and 3600 nM in test [2].
`N#C[C@H](Cc1ccc(-c2ccccc2)cc1F)NC(=O)[C@H]1N[C@@H]2CC[C@H]1C2` [Example 75]: the results for the IC50 in test [1] and in test [2] were 11.4 nM and 5300 nM, respectively.
As to `CCc1ncc(-c2ccc(C[C@@H](C#N)NC(=O)[C@H]3N[C@@H]4CC[C@H]3C4)c(F)c2)s1` [Example 46], the IC50 in test [1] amounted to 6.9 nM; in test [2], 4000 nM.
As for `CCc1ncc(-c2ccc(C[C@@H](C#N)NC(=O)[C@H]3N[C@H]4C[C@@H]3[C@@H]3C[C@@H]34)c(F)c2)s1` [Example 113], the results for the IC50 in test [1] and in test [2] were 36.4 nM and 8300 nM, respectively.
Regarding `N#C[C@H](Cc1ccc(-c2cnc(N3CCOCC3)s2)cc1F)NC(=O)[C@H]1N[C@@H]2CC[C@H]1C2` [Example 59], the IC50 stood at 8.5 nM in test [1] and 2500 nM in test [2].
On to `Cc1cc(-c2ccc(C[C@@H](C#N)NC(=O)[C@H]3N[C@@H]4CC[C@H]3C4)c(F)c2)n(C)n1` [Example 63], for which, in test [2], the IC50 is 6200 nM.
On to `COc1cccc(-c2cn(-c3ccc(C[C@@H](C#N)NC(=O)[C@H]4N[C@@H]5CC[C@H]4C5)c(F)c3)nn2)c1` [Example 94], for which the IC50 in test [2] is 4900 nM.
Consider `Cc1c(-c2ccc(C[C@@H](C#N)NC(=O)[C@H]3N[C@@H]4CC[C@H]3C4)c(F)c2)cnn1C` [Example 39], for which the IC50 in test [2] was found to be 7800 nM.
Still for that read-out and setting: the figure for `Cc1c(-c2ccc(C[C@@H](C#N)NC(=O)[C@H]3N[C@@H]4CC[C@H]3C4)c(F)c2)cnn1C` [Example 65] is 11700 nM.
In the case of `N#C[C@H](Cc1ccc(-c2cnn(S(=O)(=O)c3ccccc3)c2)cc1F)NC(=O)[C@H]1N[C@@H]2CC[C@H]1C2` [Example 243], the concentration for half-maximal inhibition (IC50) in test [1] was 4.8 nM.
As for `N#CC(Cc1ccc2[nH]c3ccccc3c2c1)NC(=O)[C@H]1N[C@@H]2CC[C@H]1C2` (stereo partly shown) [Example 213], the concentration for half-maximal inhibition (IC50) in test [1] worked out at 619 nM.
Consider `N#C[C@H](Cc1ccc(-c2cnn3cccnc23)cc1F)NC(=O)[C@H]1N[C@@H]2CC[C@H]1C2` [Example 168], for which, in test [1], the IC50 came to 3.7 nM.
Regarding `CN1CCN(S(=O)(=O)c2cccc(-c3ccc(C[C@@H](C#N)NC(=O)[C@H]4N[C@@H]5CC[C@H]4C5)c(F)c3)c2)CC1` [Example 224], the IC50 in test [1] was 1.2 nM.
For the compound `N#C[C@H](Cc1ccc(N2CCN(C3CC3)CC2)cc1F)NC(=O)[C@H]1N[C@@H]2CC[C@H]1C2` [Example 187], in test [1], the IC50 stood at 9.8 nM.
The same measure, in the same setting: then `CN1CCN(S(=O)(=O)c2cc(-c3ccc(C[C@@H](C#N)NC(=O)[C@H]4N[C@@H]5CC[C@H]4C5)c(F)c3)ccc2F)CC1` [Example 339], with 1.3 nM.
Same read-out and setting: the figure for `C[S+]([O-])c1cc(=O)n(-c2ccc(C[C@@H](C#N)NC(=O)[C@H]3N[C@@H]4CC[C@H]3C4)c(F)c2)cc1F` (stereo partly shown) [Example 265] is 62.7 nM; for `N#C[C@H](Cc1ccc(-n2cc(C(=O)N3CCOCC3)cn2)cc1F)NC(=O)[C@H]1N[C@@H]2CC[C@H]1C2` [Example 287] it is 39.7 nM; for `CN(C)CCN1C(=O)Cc2cc(-c3ccc(C[C@@H](C#N)NC(=O)[C@H]4N[C@@H]5CC[C@H]4C5)c(F)c3)ccc21` [Example 279] it is 5.5 nM.

What is called IC50 is the concentration that inhibits the measured activity by half.
